Reference: patent US9888679B2, “Protection of progenitor cells and regulation of their differentiation” (Proteobioactives Pty Ltd, priority 2007, dated 2018)

Legend:
[1] = tested on: murine progenitor cells (C3H10T1-2); test: Proteoglycan synthesis in micromass cultures, 6 and 9 days; type: cell-based; conditions: FIG. 16
Experimental: FIG. 16. A bar graph showing the concentration dependent effects of PPS on proteoglycan synthesis by murine progenitor cells (C3H10T1-2) in micromass cultures for 6 days and 9 days. PPS was included in the media (Ham's F12+10% FCS) and was changed every 48 hours. ^35S—SO4 was added 24 hours before culture termination. Synthesis normalized to DNA content. * P<0.05, **P<0.005, ***P<0.0005 relative to controls.
The technique used was based on that described by (Denker A E, Haas A R, Nicoll S B and Tuan R S. Chondrogenic differentiation of murine C3H10T1/2 multipotential progenitor cells: I. Stimulation by bone morphogenetic protein-2 in high density micromass cultures. Differentiation (1999); 64: 67-76). Briefly murine Progenitor cells (cell lines C3H10T1/2 or ATDC5) purchased from RIKEN Cell Bank (Tsukuba, Japan) or human immunoselected Stro-1+ Progenitor cells (Mesoblast Ltd, Melbourne, Australia) Ten microlitres (10 μl) of a suspension of the progenitor cells (1×10^7 cells/ml in Ham's F12 medium+10% FBS) were applied to individual wells of a 24-well plates. […] The radioactivity of ^35S—SO4 incorporated the ^35S-GAG-CPC complexes was measured by scintillation counting. […]

[2] = tested on: murine ATDC5 progenitor cells; test: Proteoglycan biosynthesis (35S-GAG) in monolayer cultures, maintenance or differentiation media; type: cell-based
Source text: (§1) FIG. 21. A bar graph of the concentration dependent effects of rhNC4 (batch PBA-1202P) expressed by K. lactis, in the absence (maintenance media, MM) and presence of insulin (10 micrograms/mL) (differentiation media, DM), on the biosynthesis of Proteoglycans (PGs) as determined by the incorporation of radioactively labelled sulfate into the sulfated glycosaminoglycans (^35S-GAG) of PGs after 3 day culture with Murine ATDC5 progenitor cells. The data was expressed as % change relative to control cultures that contained no rhNC4. P<0.05 was statistically significant relative to control cultures.
FIG. 24. A bar graph of the concentration dependent effects of combinations of rhNC4 (batch PBA-1202P) and Pentosan Polysulfate (PPS) on the biosynthesis of 35S-PGs by monolayer cultures of Murine ATDC5 progenitor cells. Data is expressed relative to control (maintenance media, MM) which was taken as 100%.
as §1, with “31.” for “21.”
FIG. 32. A bar graph of the concentration dependent effects of Pentosan Polysulfate (PPS), in the presence of insulin (10 micrograms/mL), on the biosynthesis of Proteoglycans PGs) as determined by the incorporation of radioactively labelled sulfate into the sulfated glycosaminoglycans (^35S-GAG) of PGs after 3 day culture with Murine ATDC5 progenitor cells. The data was expressed as ^35S-GAG radioactivity as counts per minute (CPM) and decays per minute (DPM) relative to control cultures that contained no PPS. P<0.05 was statistically significant relative to control cultures.
Murine Progenitor cells (cell lines C3H10T1/2 or ATDC5) purchased from RIKEN Cell Bank (Tsukuba, Japan) or human immunoselected Stro-1+ Progenitor cells (Mesoblast Ltd, Melbourne, Australia) were seeded into 50 mL plastic culture flasks containing 1:1 high glucose DMEM/Ham's F-12 medium (Invitrogen) supplemented with 10% FBS (Sigma) and incubated at 37° C., in 5% CO2. […] The experiments were generally terminated after 48 hours incubation when proteoglycan biosynthesis was determined by measuring the incorporation of ^35SO4 into the glycosaminoglycans (^35S-GAGs) as described below.
The data was expressed as % change relative to control cultures that contained no rhNC4. […]

In the case of pentosan polysulfate [PPS], the “uptake of 35S into newly synthesized PG” value ([1]; 1-20 micrograms/mL, micromass) is reported as “Highly significant stimulation”, the “stimulation of proteoglycan synthesis” value ([1]; 1 microgram/mL, nine days in micromass cultures) is reported as 100% and the PG synthesis ([2]; PPS in the presence of insulin (10 micrograms/mL), 3 day culture, FIG. 32) is reported as “concentration dependent stimulation of PG synthesis”. The “biosynthesis of 35S-PGs” value ([2]; PPS, monolayer, FIG. 24) was “effect of PPS increases with concentration”.
